We go through 24 compounds from EP4692083A1, “NOVEL AZABICYCLE DERIVATIVES AND PHARMACEUTICAL COMPOSITION FOR INHIBITING AUTOTAXIN, COMPRISING SAME” (Nextgen Bioscience Co., Ltd., priority 2023, dated 2024).

The target in this experiment is human Autotaxin protein (Homo sapiens, UniProt Q13822). Nature of the experiment: Evaluation of the inhibitory activity against human Autotaxin protein (18:1 LysoPC substrate, choline assay kit, absorbance at 570 nm). The format is biochemical. Particulars: at 500nM compound, 2 hours at 37 °C, read-out: Inhibition rate (%, at 500nM). Here is the method: Solutions of each synthesized compound (80 uM, 100% dimethyl sulfoxide) were sequentially diluted 5-fold with dimethyl sulfoxide to prepare 6 concentrations. Each concentration of the compound was diluted 2-fold with 1x test buffer (50 mM Tris-Cl (pH 8.0), 5 mM KCl, 1 mM CaCl2, 1 mM MgCl2, 140 mM NaCl, deionized water, 1 mg/mL BSA), and 1 uL (1.25% dimethylsulfoxide) of the diluted mixture was dispensed into each well of a 96-well clear round-bottom plate. 9 uL of 1x test buffer was added, and 20 uL of 240 nM human autotaxin protein (buffer: 50 mM Tris-HCl, pH 8.0, with 150 mM sodium chloride and 20% glycerol) was added. 10 uL of sonicated 360 uM 18:1 LysoPC (diluted with 1x assay buffer) was added. The reaction was performed for 2 hours in a shaking incubator at 37 °C, and a secondary reaction mixture (choline assay kit, KA1662) (65 uL of 1x assay buffer: 1 uL of choline oxidase: 1 uL of dye probe) was prepared. 60 uL of the secondary reaction mixture was added to the plate where the reaction was performed, and incubated for 30 minutes in a shaker. The absorbance value was measured at a wavelength of 570 nm using a SpectraMax iD3 microplate reader. The percentage inhibition activity value (% inhibition) was calculated by the formula: (1 - absorbance value test group / absorbance value control group) X 100.
Take `Cc1nn[nH]c1[C@H]1[C@@H]2CN(c3nnc(-c4cnc(NCCc5ccc(Cl)cc5)nc4)o3)C[C@@H]21` [Example 48, N-(4-Chlorophenethyl)-5-(5-((1R,5S,6r)-6-(4-methyl-1H-1,2,3-triazol-5-yl)-3-azabicyclo[3.1.0]hexan-3-yl)-1,3,4-oxadiazol-2-yl)pyrimidin-2-amine]: the inhibition at 0.5 µM amounted to 34.7%.

On to `FC(F)(F)c1cccc(CNc2ncc(-c3nnc(N4C[C@@H]5[C@H](C4)[C@H]5c4cnn[nH]4)o3)cn2)c1` [Example 21, 5-(5-((1R,5S,6r)-6-(1H-1,2,3-Triazol-5-yl)-3-azabicyclo[3.1.0]hexan-3-yl)-1,3,4-oxadiazol-2-yl)-N-(3-(trifluoromethyl)benzyl)pyrimidin-2-amine], for which the inhibition at 0.5 µM is 97.6%.

As to `O=C(CCc1nnc(NC2Cc3ccccc3C2)s1)N1C[C@@H]2[C@H](C1)[C@H]2c1cnn[nH]1` [Example 39, 1-((1R,5S,6r)-6-(1H-1,2,3-Triazol-5-yl)-3-azabicyclo[3.1.0]hexan-3-yl)-3-(5-((2,3-dihydro-1H-inden-2-yl)amino)-1,3,4-thiadiazol-2-yl)propan-1-one], the inhibition at 0.5 µM was 59.7%.

With `Clc1cc(Cl)cc(CCNc2ncc(-c3nnc(N4C[C@@H]5[C@H](C4)[C@H]5c4cnn[nH]4)o3)cn2)c1` [Example 29, 5-(5-((1R,5S,6r)-6-(1H-1,2,3-Triazol-5-yl)-3-azabicyclo[3.1.0]hexan-3-yl)-1,3,4-oxadiazol-2-yl)-N-(3,5-dichlorophenethyl)pyrimidin-2-amine], the inhibition at 0.5 µM is 97%.

Consider `c1ccc(CCNc2ncc(-c3nnc(N4C[C@@H]5[C@H](C4)[C@H]5c4cnn[nH]4)o3)cn2)nc1` [Example 32, 5-(5-((1R,5S,6r)-6-(1H-1,2,3-Triazol-5-yl)-3-azabicyclo[3.1.0]hexan-3-yl)-1,3,4-oxadiazol-2-yl)-N-(2-(pyridin-2-yl)ethyl)pyrimidin-2-amine], for which the inhibition at 0.5 µM stood at 48.7%.

Regarding `CN(CCc1ccc(Cl)cc1)c1ncc(-c2nnc(N3C[C@@H]4[C@H](C3)[C@H]4c3cnn[nH]3)o2)cn1` [Example 37, 5-(5-((1R,5S,6r)-6-(1H-1,2,3-Triazol-5-yl)-3-azabicyclo[3.1.0]hexan-3-yl)-1,3,4-oxadiazol-2-yl)-N-(4-chlorophenethyl)-N-methylpyrimidin-2-amine], the inhibition at 0.5 µM worked out at 91.7%.

As to `Brc1ccc(CCNc2ncc(-c3nnc(N4C[C@@H]5[C@H](C4)[C@H]5c4cnn[nH]4)o3)cn2)cc1` [Example 27, 5-(5-((1R,58,6r)-6-(1H-1,2,3-Triazol-5-yl)-3-azabicyclo[3.1.0]hexan-3-yl)-1,3,4-oxadiazol-2-yl)-N-(4-bromophenethyl)pyrimidin-2-amine], the inhibition at 0.5 µM worked out at 98.6%.

In the case of `Clc1cccc(CCNc2ncc(-c3nnc(N4C[C@@H]5[C@H](C4)[C@H]5c4cnn[nH]4)o3)cn2)c1` [Example 14, 5-(5-((1R,5S,6r)-6-(1H-1,2,3-Triazol-5-yl)-3-azabicyclo[3.1.0]hexan-3-yl)-1,3,4-oxadiazol-2-yl)-N-(3-chlorophenethyl)pyrimidin-2-amine], the inhibition at 0.5 µM came to 85.3%.

In the case of `Fc1cc(F)cc(CNc2ncc(-c3nnc(N4C[C@@H]5[C@H](C4)[C@H]5c4cnn[nH]4)o3)cn2)c1` [Example 5, 5-(5-((1R,5S,6r)-6-(1H-1,2,3-Triazol-5-yl)-3-azabicyclo[3.1.0]hexan-3-yl)-1,3,4-oxadiazol-2-yl)-N-(3,5-difluorobenzyl)pyrimidin-2-amine], the inhibition at 0.5 µM was 86.4%.

`FC(F)(F)c1cc(CNc2ncc(-c3nnc(N4C[C@@H]5[C@H](C4)[C@H]5c4cnn[nH]4)o3)cn2)cc(C(F)(F)F)c1` [Example 10, 5-(5-((1R,5S,6r)-6-(1H-1,2,3-Triazol-5-yl)-3-azabicyclo[3.1.0]hexan-3-yl)-1,3,4-oxadiazol-2-yl)-N-(3,5-bis(trifluoromethyl)benzyl)pyrimidin-2-amine]: the inhibition at 0.5 µM is 91.6%.

Turning to `Clc1cc(Cl)cc(CNc2ncc(-c3nnc(N4C[C@@H]5[C@H](C4)[C@H]5c4cnn[nH]4)o3)cn2)c1` [Example 7, 5-(5-((1R,5S,6r)-6-(1H-1,2,3-Triazol-5-yl)-3-azabicyclo[3.1.0]hexan-3-yl)-1,3,4-oxadiazol-2-yl)-N-(3,5-dichlorobenzyl)pyrimidin-2-amine], the inhibition at 0.5 µM was 92%.

For the compound `c1ccc2c(c1)CC[C@@H]2Nc1ncc(-c2nnc(N3C[C@@H]4[C@H](C3)[C@H]4c3cnn[nH]3)o2)cn1` [Example 35, 5-(5-((1R,5S,6S)-6-(1H-1,2,3-Triazol-5-yl)-3-azabicyclo[3.1.0]hexan-3-yl)-1,3,4-oxadiazol-2-yl)-N-((S)-2,3-dihydro-1H-inden-1-yl)pyrimidin-2-amine], the inhibition at 0.5 µM is 96.8%.

Take `Clc1ccc(CNc2ncc(-c3nnc(N4C[C@@H]5[C@H](C4)[C@H]5c4cnn[nH]4)o3)cn2)cc1` [Example 3, 5-(5-((1R,5S,6r)-6-(1H-1,2,3-Triazol-5-yl)-3-azabicyclo[3.1.0]hexan-3-yl)-1,3,4-oxadiazol-2-yl)-N-(4-chlorobenzyl)pyrimidin-2-amine]: the inhibition at 0.5 µM was found to be 73.1%.

`O=C(CCCc1nnc(NC2Cc3ccccc3C2)s1)N1C[C@@H]2[C@H](C1)[C@H]2c1cnn[nH]1` [Example 38, 1-((1R,5S,6r)-6-(1H-1,2,3-Triazol-5-yl)-3-azabicyclo[3.1.0]hexan-3-yl)-4-(5-((2,3-dihydro-1H-inden-2-yl)amino)-1,3,4-thiadiazol-2-yl)butan-1-one]: the inhibition at 0.5 µM was found to be 25.5%.

As for `O=C(CCc1cnc(NCCc2ccc(Cl)cc2)nc1)N1C[C@@H]2[C@H](C1)[C@H]2c1cnn[nH]1` [Example 43, 1-((1R,5S,6r)-6-(1H-1,2,3-Triazol-5-yl)-3-azabicyclo[3.1.0]hexan-3-yl)-3-(2-((4-chlorophenethyl)amino)pyrimidin-5-yl)propan-1-one], the inhibition at 0.5 µM turned out to be 84.8%.

`Fc1cc2c(cc1F)CC(Nc1ncc(-c3nnc(N4C[C@@H]5[C@H](C4)[C@H]5c4cnn[nH]4)o3)cn1)C2` [Example 17, 5-(5-((1R,5S,6r)-6-(1H-1,2,3-Triazol-5-yl)-3-azabicyclo[3.1.0]hexan-3-yl)-1,3,4-oxadiazol-2-yl)-N-(5,6-difluoro-2,3-dihydro-1H-inden-2-yl)pyrimidin-2-amine]: the inhibition at 0.5 µM was 96.7%.

On to `Brc1ccc2c(c1)CC(Nc1ncc(-c3nnc(N4C[C@@H]5[C@H](C4)[C@H]5c4cnn[nH]4)o3)cn1)C2` (stereo partly drawn) [Example 18, 5-(5-((1R,5S,6r)-6-(1H-1,2,3-Triazol-5-yl)-3-azabicyclo[3.1.0]hexan-3-yl)-1,3,4-oxadiazol-2-yl)-N-(5-bromo-2,3-dihydro-1H-inden-2-yl)pyrimidin-2-amine], for which the inhibition at 0.5 µM amounted to 87.6%.

For `FC(F)(F)c1ccccc1CNc1ncc(-c2nnc(N3C[C@@H]4[C@H](C3)[C@H]4c3cnn[nH]3)o2)cn1` [Example 22, 5-(5-((1R,5S,6r)-6-(1H-1,2,3-Triazol-5-yl)-3-azabicyclo[3.1.0]hexan-3-yl)-1,3,4-oxadiazol-2-yl)-N-(2-(trifluoromethyl)benzyl)pyrimidin-2-amine], the inhibition at 0.5 µM was 98.4%.

With `Clc1ccc(CCNc2ncc(-c3nnc(N4C[C@@H]5[C@H](C4)[C@H]5c4cnn[nH]4)o3)cn2)cc1` [Example 15, 5-(5-((1R,5S,6r)-6-(1H-1,2,3-Triazol-5-yl)-3-azabicyclo[3.1.0]hexan-3-yl)-1,3,4-oxadiazol-2-yl)-N-(4-chlorophenethyl)pyrimidin-2-amine], the inhibition at 0.5 µM was 94.5%.

For `COc1ccc(CCNc2ncc(-c3nnc(N4C[C@@H]5[C@H](C4)[C@H]5c4cnn[nH]4)o3)cn2)cc1` [Example 30, 5-(5-((1R,5S,6r)-6-(1H-1,2,3-Triazol-5-yl)-3-azabicyclo[3.1.0]hexan-3-yl)-1,3,4-oxadiazol-2-yl)-N-(4-methoxyphenethyl)pyrimidin-2-amine], the inhibition at 0.5 µM came to 95.7%.

For `Fc1cccc(CCNc2ncc(-c3nnc(N4C[C@@H]5[C@H](C4)[C@H]5c4cnn[nH]4)o3)cn2)c1` [Example 12, 5-(5-((1R,5S,6r)-6-(1H-1,2,3-Triazol-5-yl)-3-azabicyclo[3.1.0]hexan-3-yl)-1,3,4-oxadiazol-2-yl)-N-(3-fluorophenethyl)pyrimidin-2-amine], the inhibition at 0.5 µM was 82.9%.

Turning to `N#Cc1ccc(CNc2ncc(-c3nnc(N4C[C@@H]5[C@H](C4)[C@H]5c4cnn[nH]4)o3)cn2)cc1` [Example 24, 4-(((5-(5-((1R,5S,6r)-6-(1H-1,2,3-Triazol-5-yl)-3-azabicyclo[3.1.0]hexan-3-yl)-1,3,4-oxadiazol-2-yl)pyrimidin-2-yl)amino)methyl)benzonitrile], the inhibition at 0.5 µM worked out at 66.3%.

`Clc1cccc(CNc2ncc(-c3nnc(N4C[C@@H]5[C@H](C4)[C@H]5c4cnn[nH]4)o3)cn2)c1` [Example 2, 5-(5-((1R,5S,6r)-6-(1H-1,2,3-Triazol-5-yl)-3-azabicyclo[3.1.0]hexan-3-yl)-1,3,4-oxadiazol-2-yl)-N-(3-chlorobenzyl)pyrimidin-2-amine]: the inhibition at 0.5 µM is 88.5%.

As to `O=C(CCCc1cnc(NCc2cc(Cl)cc(Cl)c2)nc1)N1C[C@@H]2[C@H](C1)[C@H]2c1cnn[nH]1` [Example 44, 1-((1R,5S,6r)-6-(1H-1,2,3-Triazol-5-yl)-3-azabicyclo[3.1.0]hexan-3-yl)-4-(2-((3,5-dichlorobenzyl)amino)pyrimidin-5-yl)butan-1-one], the inhibition at 0.5 µM stood at 58.6%.

What is called inhibition is the drop in the measured response relative to a control, in per cent.
